# Source: BindingDB's records for doi:10.1021/bi00118a023 (University of Akron, 1992)
# Target: T1, Bifunctional aspartokinase/homoserine dehydrogenase 1 (Escherichia coli (strain K12), UniProt P00561)
# T1 sequence (P00561 whole entry): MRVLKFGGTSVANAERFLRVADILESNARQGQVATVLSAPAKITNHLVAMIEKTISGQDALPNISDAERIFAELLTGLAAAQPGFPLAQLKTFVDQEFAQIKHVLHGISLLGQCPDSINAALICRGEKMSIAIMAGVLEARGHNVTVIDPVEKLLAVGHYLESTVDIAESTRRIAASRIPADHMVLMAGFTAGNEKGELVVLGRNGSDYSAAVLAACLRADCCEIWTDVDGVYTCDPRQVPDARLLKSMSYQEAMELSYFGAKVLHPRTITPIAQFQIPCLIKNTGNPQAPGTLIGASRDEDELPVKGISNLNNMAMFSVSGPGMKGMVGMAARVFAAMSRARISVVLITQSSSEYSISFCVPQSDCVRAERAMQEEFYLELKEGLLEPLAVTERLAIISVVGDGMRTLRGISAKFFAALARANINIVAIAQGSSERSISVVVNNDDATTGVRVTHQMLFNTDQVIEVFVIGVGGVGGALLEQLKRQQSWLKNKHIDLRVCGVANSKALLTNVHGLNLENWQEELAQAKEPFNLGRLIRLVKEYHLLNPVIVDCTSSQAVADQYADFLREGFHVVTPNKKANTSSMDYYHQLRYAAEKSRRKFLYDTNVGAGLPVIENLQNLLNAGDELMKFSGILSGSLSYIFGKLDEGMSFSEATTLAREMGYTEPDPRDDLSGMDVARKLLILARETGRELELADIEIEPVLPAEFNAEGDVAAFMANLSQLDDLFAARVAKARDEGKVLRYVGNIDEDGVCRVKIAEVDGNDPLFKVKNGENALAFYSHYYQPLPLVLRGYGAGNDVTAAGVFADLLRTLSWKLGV
# Test: Inhibition Assay
# Description: Analogues of L-aspartic acid and beta-aspartyl phosphate were examined as inhibitors in the aspartokinase I reaction by using the coupled reaction with ASA-DH.
row,SMILES,Ki [mM]
1,NC(CC(=O)O)CC(=O)O [3-Aminoglutarate],45
2,NC(=O)C[C@@H](N)C(=O)O [D-asparagine],39
3,NC(CCCP(=O)(O)O)C(=O)O (stereo not drawn) [DL-2-Amino-5-phosphonovalerate],8.4
4,NC(CCP(=O)(O)O)C(=O)O (stereo not drawn) [DL-2-amino-4-phosphonobutyrate],61
5,N[C@@H](CN(O)N=O)C(=O)O [L-Alanosine],7.5
6,COC(=O)C[C@H](N)C(=O)OC [L-Aspartic dimethyl ester],71
7,N[C@@H](CCC(=O)O)C(=O)O [L-Glutamic acid],38
8,CC(C)[C@H](N)C(=O)O [L-Valine],32
9,C[C@H](N)C(=O)O [L-alanine],99
10,CCCC[C@H](N)C(=O)O [L-norleucine],24

# Results, then the molecule that gave them:
row,Ki [mM],SMILES
1,30,NCC(O)C(=O)O (racemic) [DL-Isoserine]
2,10,"NCC[C@H](N)C(=O)O [2,4-Diaminobutanoate]"
3,5,CCC(N)C(=O)O (stereo not given) [2-Aminobutyrate]
4,23,NC(C(=O)O)C(=O)O [Aminomalonate]
5,11,N[C@@H](CC(=O)O)C(=O)OCc1ccccc1 [D-aspartate alpha-benzyl ester]
6,16,N[C@@H](CC(=O)NO)C(=O)O [D-aspartate-beta-hydroxamate]
7,6,N[C@@H](CCOP(=O)(O)O)C(=O)O [Homoserine phosphate]
8,3.1,CCC[C@H](N)C(=O)O [L-Norvaline]
9,24,COC(=O)CC[C@H](N)C(=O)O [L-glutamate gamma-methyl ester]
10,12,N[C@@H](COP(=O)(O)O)C(=O)O [O-phospho-L-serine]
